In ChEMBL document CHEMBL2203217, “Prohormone-substrate peptide sequence recognition by peptidylglycine α-amidating monooxygenase and its reflection in increased glycolate inhibitor potency” (Bioorg Med Chem Lett, 2012) one finds IC50 data, which are given here for one compound.

In experiment [1] the target is T1, Peptidyl-glycine alpha-amidating monooxygenase (Homo sapiens, UniProt P19021).
T1 sequence (P19021 whole entry): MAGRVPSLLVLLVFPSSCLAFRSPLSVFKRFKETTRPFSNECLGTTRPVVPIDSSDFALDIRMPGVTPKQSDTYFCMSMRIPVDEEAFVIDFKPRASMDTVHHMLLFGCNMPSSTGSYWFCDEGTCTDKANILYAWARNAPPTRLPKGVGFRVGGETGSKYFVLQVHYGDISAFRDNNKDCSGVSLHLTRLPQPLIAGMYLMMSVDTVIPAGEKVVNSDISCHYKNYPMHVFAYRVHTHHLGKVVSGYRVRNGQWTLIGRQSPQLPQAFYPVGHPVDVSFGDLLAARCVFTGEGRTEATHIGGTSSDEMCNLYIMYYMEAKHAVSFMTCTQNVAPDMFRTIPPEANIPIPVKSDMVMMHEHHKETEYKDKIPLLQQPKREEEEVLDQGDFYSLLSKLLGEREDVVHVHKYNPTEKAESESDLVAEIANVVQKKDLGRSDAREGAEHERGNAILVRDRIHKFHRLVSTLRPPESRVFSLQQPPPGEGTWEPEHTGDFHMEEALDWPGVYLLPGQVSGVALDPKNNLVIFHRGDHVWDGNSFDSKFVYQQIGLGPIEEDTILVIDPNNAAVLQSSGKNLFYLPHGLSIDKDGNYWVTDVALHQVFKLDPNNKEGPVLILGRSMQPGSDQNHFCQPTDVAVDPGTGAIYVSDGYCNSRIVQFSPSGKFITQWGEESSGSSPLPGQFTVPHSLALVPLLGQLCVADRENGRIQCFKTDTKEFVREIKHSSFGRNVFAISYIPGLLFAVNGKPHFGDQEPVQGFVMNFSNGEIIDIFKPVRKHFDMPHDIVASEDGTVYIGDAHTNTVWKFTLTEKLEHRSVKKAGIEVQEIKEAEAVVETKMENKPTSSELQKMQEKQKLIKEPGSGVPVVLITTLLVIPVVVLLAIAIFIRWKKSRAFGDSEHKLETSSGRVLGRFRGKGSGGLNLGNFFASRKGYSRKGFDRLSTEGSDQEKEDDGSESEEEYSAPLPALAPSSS
Briefly: Competitive inhibition of secreted PAM in human DMS53 cell culture medium using as(R)-Tyr-(S)-Val-Gly as substrate after 2 hrs by HPLC analysis. Also noted: species or system DMS-53.

The target of experiment [2] is T1, Peptidyl-glycine alpha-amidating monooxygenase. In words: Competitive inhibition of PAM in human DMS53 cells using as(R)-Tyr-(S)-Val-Gly as substrate after 2 hrs by HPLC analysis. The experiment is classed as cell-based, DMS-53.

Structures are written as SMILES.

In general, IC50 refers to the point on the concentration scale where inhibition reaches its midpoint. Take `C[C@H](N)C(=O)N[C@@H](Cc1ccccc1)C(=O)OCC(=O)O`: the figures for the IC50 in experiment [1] and in experiment [2] were 370 µM and 350 µM, respectively.
